Key:
[1] = Microdevice compatibility: fluorescence image of a microdevice loaded with probe and reacted with a thiol (leakage to oil, adsorption to well); settings: for adsorption to the microdevice (inner wall of the reaction vessel / well): reaction vessel formed of CYTOP; for leakage of the probe enclosed in the well of the microdevice to the oil: sealing oil
Protocol: (§1) An enzyme stock solution was diluted with an assay buffer containing a fluorescent probe. Next, 40 μL of a reaction mixture was added to the microdevice (Simoa disk; Quanterx Corporation). Next, 80 μL of FC-70 (Sigma-Aldrich) was introduced into the microdevice to wash off the excess reaction mixture and form W/O droplets. A fluorescence signal of the catalytically produced fluorescent dye was measured under a fluorescence microscope, and the enzyme activity in the chamber was measured.
(§2) Fluorescence images were acquired using a 20× dry objective (Plan Apo 20x), an sCMOS camera (ORCA-FusionC14440, Hamamatsu Photonics K.K.), a white LED lighting unit (X-Cite Xylis, Opto Science, Inc.), and a fluorescence microscope (Ti2, Nikon Corporation) equipped with a motorized stage. In the analysis, measurement was performed using a solution containing sSiR (10 μM) as an internal standard and the focus was adjusted using fluorescence. Images were acquired in tile scan mode at full focus.
FIG. 5(a) illustrates a photograph of a state in which each of three kinds of probes containing 2- and 6-position unsubstituted BODIPY and GSH are supplemented with octanol and water. FIG. 5(b) illustrates a fluorescence image of a microdevice equipped with a probe and reacted with a thiol.
FIG. 5(d) illustrates fluorescence images of a microdevice containing human plasma that was loaded with a fluorescent probe (30 μM) in HEPES-buffer (10 mM, pH 7.4, containing 0.1% CHAPS) and incubated at 37° C. for 1.5 hours.
FIG. 7(a) illustrates a photograph (water-octanol distribution experiment) of a state in which each probe and GSH are supplemented with octanol and water. FIG. 7(b) illustrates a fluorescence image of a microdevice equipped with a probe and reacted with a thiol.
(§3) The image was acquired after incubation at 25° C. for 30 minutes.

[2] = Water-octanol distribution experiment (probe and GSH supplemented with octanol and water); type: physicochemical; settings: for distribution to octanol (lipid-soluble solvent) side: water-octanol, with GSH
[3] = Comparison of water solubility by difference in elution time of LC-MS (C18); type: physicochemical; settings: C18, ammonium formate/acetonitrile gradient
Protocol: FIG. 10 illustrates the analysis of a mixture of five compounds by LC-MS and the extracted ion chromatogram of each compound shown with the display color. The results of the diphosphonic acid form, the dicarboxylic acid form, the disulfonic acid form, the monosulfonic acid form, and the monocarboxylic acid form are shown from the left.
The compound was eluted with a linear gradient of A/B=100/0 at 0.5 minutes and 100/0 to 0/100 at 3 minutes detected at 500 nm (eluent A: H2O containing 10 mM ammonium formate; eluent B: acetonitrile 80%, H2O 20% containing 10 mM ammonium formate).

cholinesterase (ChE) = settings: blood diluted to 1/10,000; corresponding to a total enzyme concentration of 1 pM
Protocol: as §1, §2
FIG. 5(c) illustrates a schematic diagram of a coupled assay of an acetylthiocholine system for detection of cholinesterase (ChE) activity.
as §3
The upper view is a fluorescence image of a microdevice equipped with a probe (30 μM), acetylthiocholine (1 mM), and a 1/10,000-fold diluted plasma sample of a healthy human subject. […]

acetylcholinesterase = assay: Acetylthiocholine coupled assay in a microdevice with the nitrophenol-type probe; type: biochemical; settings: probe 1 μM, acetylthiocholine iodide 1 mM, human plasma 1,000-fold dilution, 90 minutes at 37° C.
Protocol: The images were acquired after 90 minutes at 37° C.

Row | Molecule | adsorption to the microdevice (inner wall of the reaction vessel / well) [1] | leakage of the probe enclosed in the well of the microdevice to the oil [1] | other results
1 | 2,6-diCO2H Nitroolefin BODIPY [compound 9] | the same result as in Example 1 |  | distribution to octanol (lipid-soluble solvent) side [2]: partially observed
2 | 2,6-diPO3H2 Nitroolefin BODIPY [compound 17] | no adsorption to the microdevice was observed |  | water solubility ([1]; inferred from behaviour in the microdevice): high water solubility; water solubility evaluated by elution time of LC-MS [3]: greatly improved; λ (cholinesterase (ChE)): 0.03
3 | 2-CO2H Nitroolefin BODIPY [compound 4] | the same result as in Example 1 |  | lipid solubility [2]: particularly highly lipid-soluble; distribution to octanol (lipid-soluble solvent) side [2]: a large amount of the monocarboxylic acid form was distributed to octanol
4 | COc1cc(OC)c(C2=C3C=CC(=O)C=C3[Si](C)(C)c3cc(Oc4ccc(C)cc4[N+](=O)[O-])ccc32)cc1C [2.4-dinitro sTM] |  |  | detection of acetylcholinesterase activity in blood (acetylcholinesterase): detected
5 | 8-(p-nitroolefin)-BODIPY [2- and 6-position unsubstituted BODIPY, reference compound] |  | dissolved in oil | lipid solubility [2]: high lipid solubility
6 | 2-sulfo-nitroolefin BODIPY [compound 1] | adsorption of the probe to the inner wall of the reaction vessel | suppressed | 
7 | 2,6-sulfo-nitroolefin BODIPY [compound 2] | not observed | suppressed | 

Reference: patent US20250093270A1, “Method for Detecting Enzyme Activity and Fluorescent Probe Used in Said Method” (priority 2022, published 2025)
